Test results from patent US12611380B2, “Solution and method for reducing the virulence of viruses, bacteria, yeasts, or fungus” (priority 2020, dated 2026).
Entries after “also recorded” stand apart in the source; their conditions may differ. Like-named read-outs stand apart in the source and are kept apart here.

Columns and labels:
[1] = tested on: viral illnesses such as pharyngitis and rhinorrhea; test: ILCS spray or wash for the nasopharynx cavity; type: in vivo; conditions: 2-50 mM ILCS spray or wash
[2] = tested on: Vero 76 cells
[3] = tested on: methacillin resistant Staphylococcus aureus, vancomycin resistant enterococcus, pseudomonas, aspergillus, Candida albicans, Helicobacter pylori; conditions: studies by a third party; cited from earlier work
[4] = tested on: SARS-COV-2; test: Virucidal assay, 2 minutes contact, end-point titer (CCID50) on Vero 76 cells
[5] = Solubility of ILCS preparations; type: physicochemical; conditions: pH 7-10.5
[6] = tested on: Candida auris AR-0381; test: EPA MLB SOP MB-35-00 stainless steel carrier disinfection with ILPS (Example 5); type: cell-based
[7] = tested on: Candida albicans (ATCC 10231); test: EPA protocol MB-35-00 hard surface carrier disinfection test; conditions: 0.42 M, 1 min
Procedure: (§1) We used EPA protocol MB-35-00 for testing disinfectants against C. auris (US Environmental Protection Agency. 2017, 2020) and C. albicans ATCC 10231, a yeast common in package spoilage of food and cosmetics.
(§2) We tested 5 batches produced with difference sources of isomerized linoleic acid (Test Substances 1-5).
(§3) The EPA test protocol for testing hard surface disinfection of C. auris (AR0381) with antifungal resistance includes an overnight culture of C. auris (AR.0381) shaken at 200 rpm at 30° C. From this culture, 8 mL was harvested by centrifugation, re-suspended in 2-3 mL phosphate-buffered saline (PBS), and mixed with a 3-part soil load including bovine serum albumin (BSA), yeast extract, and mucin. Metal carriers (10 mm) were inoculated (10 μL culture+soil load) and dried in a desiccator under vacuum (˜70 min). The disk surface was coated with the test substance at 0.42 M (50 μL) for up to 10 min. Following incubation, the carriers were transferred to 10 mL neutralization solution (Sabouraud Dextrose Broth [SDB], a common yeast-mold growth media) for subsequent harvesting on membrane filters. The filtered membranes were transferred to Sabouraud Dextrose Emmons Agar (SDEA) plates to culture for 120 hours at 31° C. Controls consisted of PBS (50 μL) applied to inoculated metal disk carriers, subsequently transferred to 10 mL neutralization solution (SDB), diluted serially in PBS, and plated directly to SDEA plates, See FIG. 2.
(§4) We prepared and qualified these per EPA protocol (US Environmental Protection Agency, 2017). • Soil Stocks: We prepared soil stocks with yeast extract powder (Ref RM027) purchased from Himedia, BSA (A2153) purchased from Sigma Life Science, and gastric mucin (cat #HY-B2196/CS-7626) purchased from Mod Chem Express per SOP MB-35-00 (US Environmental Protection Agency, 2017). • Cell Harvesting: We removed cells from the growth culture media using a Micro-Centrifuge obtained from Changzhou Jintan Sanhe Instrument Co., LTD. (Model TGI6-W) at 10,000×g for 10 min in screw-top-cap vials purchased from Heathrow Scientific (Item HS 100600). The optical density of the inoculate was defined at 15-19 OD600 in PBS with the Ultrospec 10 Cell Density Meter from BioChrom (Holliston, MA, USA) prior to dilution in the soil load. Samples were diluted 1:10 in PBS to obtain absorbance readings between 1.5 and 1.9. • Membrane Filtration: Treated yeasts were collected using a combination of the Rocker (Cat #200300-01) and 47 mm PES membranes with a 0.45 micron pore size obtained from Sterlitech (Catalog #PE54547100).

[8] = tested on: COVID-19; test: Nebulized LA outpatient treatment of COVID-19 patients and close contacts (case studies); type: in vivo, human
Procedure: After informed consent of the risks and potential benefits, we nebulized 0.56 ml 11 mM LA every 4 hours to treat two COVID-19 patients. The initial treatment of the […] began after two days of symptoms and the […] began treatment after their first day symptoms. Treatment observations of these two cohabiting patients occurred in their home to alter the likely course of clinical deterioration given their co-morbidities.
They were treated with 0.56 ml 11 mM nebulized LA every 4 hours, around the clock for 7 days. Oxygen saturation levels were recorded by the patient using a pulse oximeter. The initial and final evaluation was conducted as a home visit. All other evaluations were conducted by telephone. The treatment timeline starts the day after the initial home visit. • Day 1: they reported a total loss of taste and smell and mild chest pain. They also reported absence of dyspnea early that day and improved cough. Their oxygen saturation measured 98% (up from 94%). • Day 2: they reported intermittent taste and smell through day 4. Their chest pain resolved. They also reported infrequent loose bowel movements which improved and resolved over the following 3 days. They described no dyspnea. Their oxygen saturation measured 97%. • Day 3: they reported a return of mild dyspnea. Their oxygen saturation measured 95%. • Day 4: they reported dyspnea improvement. Their oxygen saturation measured between 95-98%. • Day 5: they reported that their sense of taste and smell was close to normal. They also reported that their cough had resolved and they had minimal dyspnea. Their oxygen saturation measured 97%. • Day 6: no reported symptoms. Their oxygen saturation measured 97%. • Day 7: no reported symptoms. Their oxygen saturation measured 98%.
After informed consent of the risks and potential benefits, we nebulized 0.56 ml 11 mM LA every 4 hours around the clock for 7 days. […] […] initial oxygen saturation measured 96%.
Oxygen saturation levels were recorded by the patient using a pulse oximeter. The initial and final evaluation was conducted as a home visit. All other evaluations were conducted by telephone. The treatment timeline starts the day after the initial home visit. • Day 1: they reported loss of taste and smell and fatigue. Their wheezing had improved. They reported no dyspnea. Oxygen saturation measured 95%. • Day 2: they reported mild wheezing and dyspnea. Their oxygen saturation measured 94%. An additional treatment of an Albuterol nebulizer and Methylprednisolone Dosepak was started for their asthma exacerbation. When starting nebulized Albuterol, this patient inadvertently discontinued the nebulized LA because they misunderstood instructions. This cessation of nebulized LA was not reported to the treating physician until Day 4. • Day 3: they reported improved loss of taste and smell and cough. Dyspnea worsened. Oxygen saturation measured 98% • Day 4: they reported that the loss of taste and smell improved. They also reported mild wheezing and cough. Oxygen saturation measured 95%. The patient reported the Albuterol nebulizer aggravated dyspnea symptoms. Because of their complaint, the Albuterol nebulizer was discontinued. Nebulized LA treatment was started again. • Day 5: they reported no loss of taste and smell. Minimal cough, wheeze, and dyspnea. Oxygen saturation measured 96% • Day 6: no reported symptoms. Oxygen saturation measured 98%. • Day 7: no reported symptoms. Oxygen saturation measured 98%.
Four lab confirmed COVID-19 cases, 2 probable cases, and 2 close contacts of confirmed COVID-19 cases were nebulized 0.56 ml 11 mM LA (Table 2). Treatment with LA was started after patients were assessed by their primary physician. Patients presented at different points in their COVID-19 infection. Onset of treatment ranged from asymptomatic to 9 days into the symptom course. Two close contacts with cases were treated. They were asymptomatic. Two close contacts with COVID-19 cases were also nebulized using 0.56 ml 11 mM LA every 4 hours. […]

[9] = tested on: Candida auris (AR-0381)
Procedure: as §1, §2, §3, §4

[10] = tested on: Candida albicans ATCC 10231; test: EPA MLB SOP MB-35-00 stainless steel carrier disinfection with ILPS (Example 5); type: cell-based
[11] = Concentration 11.3% of 12% ICLS, 2 minutes, 22±2° C., Table 4
[12] = Concentration 22.5% of 12% ICLS, 2 minutes, 22±2° C., Table 4
[13] = Concentration 45% of 12% ICLS, 2 minutes, 22±2° C., Table 4
[14] = Concentration 90% of 12% ICLS, 2 minutes, 22±2° C., Table 4
[15] = second experiment, Concentration 0.25% of 12% ICLS, 2 minutes, Table 5
[16] = second experiment, Concentration 0.5% of 12% ICLS, 2 minutes, Table 5
[17] = second experiment, Concentration 1% of 12% ICLS, 2 minutes, Table 5
[18] = second experiment, Concentration 11.3% of 12% ICLS, 2 minutes, 22±2° C., Table 5
[19] = second experiment, LA 1% (4.4 mM), 2 minutes, Tables 8 and 9

Q: With “potassium salt of isomerized linoleic acid [ILCS]” as the substance, how does the “symptoms associated with viral illnesses” value [1] read?
A: reduced symptoms

Q: And the “toxicity to cells in titer plates” value ([2]; 11.3% sample, 1/10 dilution)?
A: Full toxicity

Q: What about the “toxicity to cells in titer plates” value ([2]; 22.5%-90% samples, 1/10 and 1/100 dilutions) of the same substance?
A: Full toxicity

Q: And the growth of pathogens [3]?
A: suppresses the growth

Q: And the “reduction of virus vs virus controls” value [4]?
A: > 99%

Q: And the “reduction of virus vs virus controls” value ([4]; 1% (4.4 mM), 2 minutes, second experiment, titer reduced to 1.7 log CCID50 per 0.1 mL)?
A: 99%

Q: What about the “reduction of virus vs virus controls” value ([4]; 22.5%-90%, 2 minutes, first experiment, below limit of detection 2.7 log CCID50 per 0.1 mL) of the same substance?
A: > 80%

Q: What about the “LRV (log reduction value)” value [4, 11] of the same substance?
A: >1.8

Q: And the “Virus Titer” value [4, 11]?
A: <1.7 Log10 CCID50 of virus per 0.1 mL

Q: And the “LRV (log reduction value)” value [4, 12]?
A: >0.8

Q: What about the “Virus Titer” value [4, 12] of the same substance?
A: <2.7 Log10 CCID50 of virus per 0.1 mL

Q: And the “LRV (log reduction value)” value [4, 13]?
A: >0.8

Q: What about the “Virus Titer” value [4, 13] of the same substance?
A: <2.7 Log10 CCID50 of virus per 0.1 mL

Q: And the “LRV (log reduction value)” value [4, 14]?
A: >0.8

Q: And the “Virus Titer” value [4, 14]?
A: <2.7 Log10 CCID50 of virus per 0.1 mL

Q: And the “kill-rate of COVID-19 (SARS-Cov-2) in vitro” value ([4]; LA 4.4-50.2 mM, 2 minutes)?
A: 99%

Q: And the “LRV (log reduction value)” value [4, 15]?
A: 0.4

Q: And the “Virus Titer” value [4, 15]?
A: 3.3 Log10 CCID50 of virus per 0.1 mL

Q: What about the “LRV (log reduction value)” value [4, 16] of the same substance?
A: 0.2

Q: And the “Virus Titer” value [4, 16]?
A: 3.5 Log10 CCID50 of virus per 0.1 mL

Q: And the “LRV (log reduction value)” value [4, 17]?
A: 2.0

Q: What about the “Virus Titer” value [4, 17] of the same substance?
A: 1.7 Log10 CCID50 of virus per 0.1 mL

Q: And the “LRV (log reduction value)” value [4, 18]?
A: >2.0

Q: What about the “Virus Titer” value [4, 18] of the same substance?
A: <1.7 Log10 CCID50 of virus per 0.1 mL

Q: What about the “LRV (log reduction value)” value [4, 19] of the same substance?
A: >2.0

Q: And the Virus Titer [4, 19]?
A: <1.7 Log10 CCID50of virus per 0.1 mL

Q: And the solubility [5]?
A: remain soluble

Q: And the kill ([6]; 2-minute immersion, carriers inoculated with 6-8 log yeast)?
A: 100%

Q: What about the “colonies recovered from treated carries” value ([6]; undiluted ILPS, 10 minutes, seven carries, untreated 7.1-7.2 log10 CFU) of the same substance?
A: no colonies

Q: And the log kill rate [7]?
A: greater than 5 log

Q: And the “COVID-19 Complications” value ([8]; Cases 1)?
A: none

Q: And the “Total Duration of Symptoms” value ([8]; Cases 1, 0 days of symptoms before treatment)?
A: 0 days

Q: What about the “COVID-19 Complications” value ([8]; Cases 2) of the same substance?
A: none

Q: And the “Total Duration of Symptoms” value ([8]; Cases 2, 2 days of symptoms before treatment)?
A: 7 days

Q: What about the “Total Duration of Symptoms” value ([8]; Cases 3, 4 days of symptoms before treatment) of the same substance?
A: 16 days

Q: And the “Total Duration of Symptoms” value ([8]; Cases 4, 9 days of symptoms before treatment)?
A: 23 days

Q: And the “COVID-19 Complications” value ([8]; Close Contacts 1)?
A: none

Q: And the “Total Duration of Symptoms” value ([8]; Close Contacts 1, asymptomatic at treatment)?
A: 0 days

Q: And the “COVID-19 Complications” value ([8]; Close Contacts 2)?
A: none

Q: And the “Total Duration of Symptoms” value ([8]; Close Contacts 2, asymptomatic at treatment)?
A: 0 days

Q: What about the “COVID-19 Complications” value ([8]; Probable Cases 1) of the same substance?
A: Steroid for asthma

Q: What about the “Total Duration of Symptoms” value ([8]; Probable Cases 1, 1 day of symptoms before treatment) of the same substance?
A: 6 days

Q: And the “COVID-19 Complications” value ([8]; Probable Cases 2)?
A: none

Q: And the “Total Duration of Symptoms” value ([8]; Probable Cases 2, 3 days of symptoms before treatment)?
A: 10 days

Q: What about the “side effects to nebulized LA” value ([8]; eight patients of Example 7, nebulized 0.56 ml 11 mM LA, listed as LA) of the same substance?
A: no side effects; also recorded: None of the eight patients reported any side effects

Q: And the oxygen saturation ([8]; husband, treatment Day 1 (94% before treatment))?
A: 98%

Q: And the oxygen saturation ([8]; husband, treatment Day 2)?
A: 97%

Q: What about the oxygen saturation ([8]; husband, treatment Day 3) of the same substance?
A: 95%

Q: And the oxygen saturation ([8]; husband, treatment Day 4)?
A: 95-98%

Q: What about the oxygen saturation ([8]; husband, treatment Day 5) of the same substance?
A: 97%

Q: And the oxygen saturation ([8]; husband, treatment Day 6)?
A: 97%

Q: And the oxygen saturation ([8]; husband, treatment Day 7)?
A: 98%

Q: What about the “prevention of symptoms in close contacts” value ([8]; two asymptomatic close contacts of COVID-19 cases) of the same substance?
A: completely effective

Q: What about the “side effects to nebulized LA” value ([8]; two patients of Example 6, 0.56 ml 11 mM every 4 hours for 7 days) of the same substance?
A: no side effects

Q: And the oxygen saturation ([8]; wife, Day 2, Albuterol and Methylprednisolone started, LA inadvertently discontinued)?
A: 94%

Q: And the oxygen saturation ([8]; wife, Day 3, nebulized LA discontinued, on Albuterol)?
A: 98%

Q: And the oxygen saturation ([8]; wife, Day 4, nebulized LA started again)?
A: 95%

Q: And the oxygen saturation ([8]; wife, treatment Day 1 (96% before treatment))?
A: 95%

Q: What about the oxygen saturation ([8]; wife, treatment Day 5) of the same substance?
A: 96%

Q: What about the oxygen saturation ([8]; wife, treatment Day 6) of the same substance?
A: 98%

Q: What about the oxygen saturation ([8]; wife, treatment Day 7) of the same substance?
A: 98%

Q: And the log kill rate ([9]; 0.42 M, 1 min)?
A: greater than 5 log

Q: And the log kill rates ([9]; 10-min test, the longest time allowed per the SOP)?
A: greater than 5 log

Q: What about the “growth on exposed carrier” value ([10]; 1 minute exposure to ILPS, only exposure time of 8 to 1 minutes with growth) of the same substance?
A: 158 CFU

Q: What about the kill ([10]; 2 minutes exposure/immersion, carriers with 6-8 log yeast) of the same substance?
A: 100%

Q: What about the “colonies recovered from treated surfaces” value ([10]; undiluted ILPS, 10 minutes contact time, PBS controls 5.9 to 7.2 log10 CFU) of the same substance?
A: no Candida albicans colonies
